From patent publication US20240041042A1, “1-(PYRIDYL)-5-AZINYLPYRAZOLE DERIVATIVES, AND THEIR USE FOR CONTROL OF UNDESIRED PLANT GROWTH” (Bayer Aktiengesellschaft, priority 2020, published 2024)

How the values were obtained:
Format in all cases: in vivo
[1] = system: Matricaria inodora (MATIN); assay: Post-emergence herbicidal action against MATIN; conditions: dosage 320 g/ha
Experimental: (§1) Seeds of monocotyledonous and dicotyledonous weeds and crop plants are placed in sandy loam in plastic or organic planting pots, covered with soil and cultivated in a greenhouse under controlled growth conditions. 2 to 3 weeks after sowing, the test plants are treated at the one-leaf stage. The compounds of the invention, formulated in the form of wettable powders (WP) or as emulsion concentrates (EC), are then sprayed onto the green parts of the plants as aqueous suspension or emulsion with addition of 0.5% additive at a water application rate of 600 l/ha (converted). After the test plants have been kept in the greenhouse under optimum growth conditions for about 3 weeks, the activity of the preparations is rated visually in comparison to untreated controls. For example, 100% activity=the plants have died, 0% activity=like control plants.
(§2) Tables B1 to B13 below show the effects of selected compounds of the general formula (I) according to Table 1 on various harmful plants and at an application rate corresponding to 320 g/ha or lower, which were obtained by the experimental procedure mentioned above. The appendices “a”, “b” and “c” give differentiation by dosage used with otherwise the same harmful plants tested.

[2] = system: Pharbitis purpurea (PHBPU); assay: Pre-emergence herbicidal action against PHBPU; conditions: dosage 320 g/ha
Source text: (§3) Seeds of monocotyledonous and dicotyledonous weed plants and crop plants are placed in plastic or organic planting pots and covered with soil. The compounds of the invention, formulated in the form of wettable powders (WP) or as emulsion concentrates (EC), are then applied to the surface of the covering soil as aqueous suspension or emulsion with addition of 0.5% additive at a water application rate equivalent to 600 l/ha. After the treatment, the pots are placed in a greenhouse and kept under good growth conditions for the trial plants. After about 3 weeks, the effect of the preparations is scored visually in comparison with untreated controls as percentages. For example, 100% activity=the plants have died, 0% activity=like control plants.
(§4) Tables A1 to A13 below show the effects of selected compounds of the general formula (I) on various harmful plants and at an application rate corresponding to 320 g/ha or lower, which were obtained by the experimental procedure mentioned above. The appendices “a”, “b” and “c” give differentiation by dosage used with otherwise the same harmful plants tested.

[3] = system: Alopecurus myosuroides (ALOMY); assay: Post-emergence herbicidal action against ALOMY; conditions: 320 g/ha, visual rating about 3 weeks after treatment vs untreated controls (100% = plants have died, 0% = like control plants)
Experimental: as §1, §2

[4] = system: Amaranthus retroflexus (AMARE); assay: Pre-emergence herbicidal action against AMARE; conditions: 320 g/ha, visual scoring after about 3 weeks vs untreated controls
Source text: as §3, §4

[5] = system: Setaria viridis (SETVI); assay: Post-emergence herbicidal action against SETVI; conditions: dosage 320 g/ha
Experimental: as §1, §2

[6] = system: Amaranthus retroflexus (AMARE); assay: Post-emergence herbicidal action against AMARE
Experimental: as §1, §2

[7] = system: Viola tricolor (VIOTR); assay: Pre-emergence herbicidal action against VIOTR
Source text: as §3, §4

[8] = system: Oryza sativa (ORYSA); conditions: crop plant compatibility, 80 g/ha, effect in comparison to untreated controls
Experimental: as §1
(§5) The observed effects on selected crop plants are reported here in comparison to the untreated controls (values in %). The appendices “a”, “b” and “c” give differentiation by dosage used with otherwise the same crop plants tested.

[9] = system: Zea mays (ZEAMX); conditions: crop plant compatibility, 80 g/ha, effect vs untreated controls
Experimental: as §1, §5

[10] = system: Pharbitis purpurea (PHBPU); assay: Post-emergence herbicidal action against PHBPU
Experimental: as §1, §2

[11] = system: Echinochloa crus-galli (ECHCG); assay: Pre-emergence herbicidal action against ECHCG
Source text: as §3, §4

[12] = system: Matricaria inodora (MATIN); assay: Pre-emergence herbicidal action against MATIN; conditions: dosage 320 g/ha
Source text: as §3, §4

[13] = system: Avena fatua (AVEFA); assay: Post-emergence herbicidal action against AVEFA; conditions: visual rating about 3 weeks after treatment
Experimental: as §1, §2

[14] = system: Polygonum convolvulus (POLCO); assay: Post-emergence herbicidal action against POLCO; conditions: dosage 320 g/ha
Experimental: as §1, §2

[15] = system: Viola tricolor (VIOTR); assay: Post-emergence herbicidal action against VIOTR; conditions: 320 g/ha
Experimental: as §1, §2

[16] = system: Setaria viridis (SETVI); assay: Pre-emergence herbicidal action against SETVI; conditions: dosage 320 g/ha
Source text: as §3, §4

[17] = system: Lolium rigidum (LOLRI); assay: Pre-emergence herbicidal action against LOLRI; conditions: dosage 320 g/ha
Source text: as §3, §4

[18] = system: Echinochloa crus-galli (ECHCG); assay: Post-emergence herbicidal action against ECHCG
Experimental: as §1, §2

[19] = system: Alopecurus myosuroides (ALOMY); assay: Pre-emergence herbicidal action against ALOMY; conditions: 320 g/ha; scored visually after about 3 weeks; 100% = plants have died
Source text: as §3, §4

O=C(O)CSc1nn(-c2ccccn2)c(-c2cncc(F)c2)c1C1CC1 [Example I-153]
90%: Post-emergence action against AMARE in % ([6]; 80 g/ha, visual rating about 3 weeks after treatment vs untreated controls (100% = plants have died, 0% = like control plants)) | Post-emergence action against AMARE in % ([6]; 320 g/ha, visual rating about 3 weeks after treatment) | Pre-emergence action against VIOTR in % ([7]; dosage 80 g/ha) | Post-emergence action against PHBPU in % ([10]; dosage 320 g/ha) | Post-emergence action against AVEFA in % ([13]; 320 g/ha) | Pre-emergence action against SETVI in % [16] | Post-emergence action against ECHCG in % ([18]; dosage 320 g/ha) | Pre-emergence action against ALOMY [19]
100%: Pre-emergence action against AMARE in % [4] | Pre-emergence action against VIOTR in % ([7]; 320 g/ha, Viola tricolor) | Pre-emergence action against ECHCG in % ([11]; dosage 320 g/ha)
0%: Post-emergence action against ORYSA in % [8]
10%: Post-emergence action against ZEAMX in % [9]
80%: Post-emergence action against MATIN in % [1] | Pre-emergence action against PHBPU in % [2] | Post-emergence action against ALOMY in % [3] | Post-emergence action against SETVI in % [5] | Post-emergence action against PHBPU in % ([10]; dosage 80 g/ha) | Pre-emergence action against ECHCG in % ([11]; dosage 80 g/ha) | Pre-emergence action against MATIN in % [12] | Post-emergence action against AVEFA in % ([13]; 80 g/ha) | Post-emergence action against POLCO in % [14] | Post-emergence action against VIOTR in % [15] | Pre-emergence action against LOLRI in % [17] | Post-emergence action against ECHCG in % ([18]; dosage 80 g/ha)
